“And” between values parts separate entries of the source, which are not always exact repeats. Equal entries are not always repeated. Toxic doses and inconclusive results are not listed. Residues, ends and D or L forms follow the SMILES beside them. *: point of attachment. Cbz = O=C(OCc1ccccc1)*
Tested on: BDF1 mice, P388 leukemia ip, median survival T/C
Experiment: NCI In Vivo Anticancer Drug Screen. Data for tumor model P388 Leukemia (intraperitoneal) in B6D2F1 (BDF1) mice
Conditions: endpoint: median survival time, higher = longer survival
Summary of the method: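 Each value expresses how treatment altered survival: treated-mouse outcome over vehicle-mouse outcome, both groups bearing the transplanted tumour.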

[1] = dose: 100.0 mg/kg/injection, schedule: Q04DX003 (ip), vehicle: saline with Tween-80
[2] = dose: 200.0 mg/kg/injection, schedule: Q04DX003 (ip), vehicle: saline with Tween-80

## CC1(C)N=C(N)N=C(N)N1c1ccc(OCCNC(=O)Nc2ccc(S(=O)(=O)F)cc2)c(Cl)c1
dose: 4.8 mg/kg/injection, schedule: Q01DX009 (ip), vehicle: saline
  T/C: 118 % of control
dose: 25.0 mg/kg/injection, schedule: Q01DX009 (ip), vehicle: saline
  T/C: 175 % of control
dose: 50.0 mg/kg/injection, schedule: Q01DX009 (ip), vehicle: saline
  T/C: 180 % of control
dose: 66.0 mg/kg/injection, schedule: Q01DX009 (ip), vehicle: saline
  T/C: 168 % of control
dose: 66.0 mg/kg/injection, schedule: Q04DX003 (ip), vehicle: saline
  T/C: 123 % of control
dose: 100.0 mg/kg/injection, schedule: Q01DX009 (ip), vehicle: saline
  T/C: 159 % of control and 200 % of control

## CN(C)c1cc(F)c(C=O)cc1[N+](=O)[O-]
dose: 100.0 mg/kg/injection, schedule: Q04DX003 (ip), vehicle: saline
  T/C: 95 % of control
dose: 200.0 mg/kg/injection, schedule: Q04DX003 (ip), vehicle: saline
  T/C: 100 % of control
dose: 400.0 mg/kg/injection, schedule: Q04DX003 (ip), vehicle: saline
  T/C: 104 % of control

## O=C1C(Cl)=C(Cl)C(=O)C2=C1C1c3ccccc3C2c2ccccc21
dose: 100.0 mg/kg/injection, schedule: Q01DX009 (ip), vehicle: Klucel (hydroxypropylcellulose) (HPC)
  T/C: 115 % of control
dose: 200.0 mg/kg/injection, schedule: Q01DX009 (ip), vehicle: Klucel (hydroxypropylcellulose) (HPC)
  T/C: 120 % of control
dose: 200.0 mg/kg/injection, schedule: Q04DX003 (ip), vehicle: saline sonified
  T/C: 109 % of control
dose: 400.0 mg/kg/injection, schedule: Q01DX009 (ip), vehicle: Klucel (hydroxypropylcellulose) (HPC)
  T/C: 105 % of control
dose: 400.0 mg/kg/injection, schedule: Q04DX003 (ip), vehicle: saline sonified
  T/C: 104 % of control

## O=C(O)/C=C/c1ccccc1C(=O)O
dose: 100.0 mg/kg/injection, schedule: Q01DX001 (ip), vehicle: saline
  T/C: 100 % of control
dose: 200.0 mg/kg/injection, schedule: Q01DX001 (ip), vehicle: saline
  T/C: 100 % of control
dose: 400.0 mg/kg/injection, schedule: Q01DX001 (ip), vehicle: saline
  T/C: 109 % of control

## CSc1ccc(OC(=O)Nc2ccccc2F)cc1
dose: 50.0 mg/kg/injection, schedule: Q04DX003 (ip), vehicle: saline with Tween-80
  T/C: 90 % of control
[1]
  T/C: 100 % of control
[2]
  T/C: 109 % of control

## O=NN(CCF)C(=O)NCCF
dose: 0.25 mg/kg/injection, schedule: Q01DX009 (ip), vehicle: saline
  T/C: 120 % of control
dose: 0.5 mg/kg/injection, schedule: Q04DX003 (ip), vehicle: saline
  T/C: 120 % of control
dose: 1.0 mg/kg/injection, schedule: Q01DX009 (ip), vehicle: saline
  T/C: 150 % of control and 172 % of control
dose: 1.0 mg/kg/injection, schedule: Q04DX003 (ip), vehicle: saline
  T/C: 104 % of control
dose: 2.0 mg/kg/injection, schedule: Q01DX009 (ip), vehicle: saline
  T/C: 268 % of control
dose: 2.0 mg/kg/injection, schedule: Q04DX003 (ip), vehicle: saline
  T/C: 175 % of control
dose: 3.3 mg/kg/injection, schedule: Q04DX003 (ip), vehicle: saline
  T/C: 165 % of control
dose: 5.0 mg/kg/injection, schedule: Q04DX003 (ip), vehicle: saline
  T/C: 235 % of control
dose: 7.5 mg/kg/injection, schedule: Q04DX003 (ip), vehicle: saline
  T/C: 95 % of control
dose: 10.0 mg/kg/injection, schedule: Q04DX003 (ip), vehicle: saline
  T/C: 300 % of control
dose: 20.0 mg/kg/injection, schedule: Q04DX003 (ip), vehicle: saline
  T/C: 110 % of control

## CC1(C)O[C@]2(C)CC[C@@H]1[C@@H](O)[C@@H]2N1CCCC1
dose: 50.0 mg/kg/injection, schedule: Q01DX005 (ip), vehicle: saline
  T/C: 95 % of control
dose: 100.0 mg/kg/injection, schedule: Q01DX005 (ip), vehicle: saline
  T/C: 106 % of control
dose: 200.0 mg/kg/injection, schedule: Q01DX005 (ip), vehicle: saline
  T/C: 106 % of control

## CC(C)NCC(O)COc1ccc(OCc2ccccc2)c(OCc2ccccc2)c1 (stereo not drawn)
dose: 25.0 mg/kg/injection, schedule: Q01DX009 (ip), vehicle: saline with Tween-80
  T/C: 106 % of control
dose: 50.0 mg/kg/injection, schedule: Q01DX009 (ip), vehicle: saline with Tween-80
  T/C: 94 % of control

## CC(C)C(NC(=O)C1CCCN1C(=O)OCc1ccccc1)C(=O)O (stereo not drawn) (Cbz-Pro-Val-OH; configuration not given here)
[1]
  T/C: 104 % of control
[2]
  T/C: 100 % of control
dose: 400.0 mg/kg/injection, schedule: Q04DX003 (ip), vehicle: saline with Tween-80
  T/C: 100 % of control

## NC(Cc1ccc(O)cc1)C(=O)N/N=C/c1ccc(N(CCCl)CCCl)cc1 (stereo not drawn)
dose: 18.0 mg/kg/injection, schedule: Q04DX003 (ip), vehicle: Klucel (hydroxypropylcellulose) (HPC)
  T/C: 108 % of control
dose: 26.0 mg/kg/injection, schedule: Q04DX003 (ip), vehicle: Klucel (hydroxypropylcellulose) (HPC)
  T/C: 116 % of control
dose: 60.0 mg/kg/injection, schedule: Q04DX003 (ip), vehicle: Klucel (hydroxypropylcellulose) (HPC)
  T/C: 165 % of control
dose: 90.0 mg/kg/injection, schedule: Q04DX003 (ip), vehicle: Klucel (hydroxypropylcellulose) (HPC)
  T/C: 169 % of control
dose: 100.0 mg/kg/injection, schedule: Q04DX003 (ip), vehicle: Klucel (hydroxypropylcellulose) (HPC)
  T/C: 165 % of control
dose: 133.0 mg/kg/injection, schedule: Q04DX003 (ip), vehicle: Klucel (hydroxypropylcellulose) (HPC)
  T/C: 170 % of control
dose: 200.0 mg/kg/injection, schedule: Q04DX003 (ip), vehicle: Klucel (hydroxypropylcellulose) (HPC)
  T/C: 192 % of control and 204 % of control
dose: 300.0 mg/kg/injection, schedule: Q04DX003 (ip), vehicle: Klucel (hydroxypropylcellulose) (HPC)
  T/C: 166 % of control

## Cn1cnc([N+](=O)[O-])c1[Se]c1ncnc2c1c(C#N)cn2C1OC(CO)C(O)C1O (stereo not drawn)
dose: 6.25 mg/kg/injection, schedule: Q04DX003 (ip), vehicle: saline
  T/C: 93 % of control
dose: 12.5 mg/kg/injection, schedule: Q04DX003 (ip), vehicle: saline
  T/C: 119 % of control
dose: 25.0 mg/kg/injection, schedule: Q04DX003 (ip), vehicle: saline
  T/C: 102 % of control

## CN(C)C(=O)c1cccc(COc2ccc(N3C(N)=NC(N)=NC3(C)C)cc2Cl)c1
dose: 4.0 mg/kg/injection, schedule: Q03HX024 (ip), vehicle: saline
  T/C: 100 % of control
dose: 8.0 mg/kg/injection, schedule: Q03HX016 (ip), vehicle: saline
  T/C: 100 % of control
dose: 16.0 mg/kg/injection, schedule: Q01DX009 (ip), vehicle: saline
  T/C: 90 % of control
dose: 16.0 mg/kg/injection, schedule: Q01DX009 (sc), vehicle: saline
  T/C: 100 % of control
dose: 16.0 mg/kg/injection, schedule: Q03HX016 (ip), vehicle: saline
  T/C: 100 % of control
dose: 16.0 mg/kg/injection, schedule: Q03HX024 (ip), vehicle: saline
  T/C: 118 % of control
dose: 32.0 mg/kg/injection, schedule: Q01DX009 (ip), vehicle: saline
  T/C: 118 % of control
dose: 32.0 mg/kg/injection, schedule: Q01DX009 (sc), vehicle: saline
  T/C: 90 % of control
dose: 32.0 mg/kg/injection, schedule: Q03HX016 (ip), vehicle: saline
  T/C: 118 % of control
dose: 32.0 mg/kg/injection, schedule: Q04DX003 (ip), vehicle: saline
  T/C: 100 % of control
dose: 64.0 mg/kg/injection, schedule: Q01DX001 (ip), vehicle: saline
  T/C: 100 % of control
dose: 64.0 mg/kg/injection, schedule: Q01DX001 (sc), vehicle: saline
  T/C: 90 % of control
dose: 64.0 mg/kg/injection, schedule: Q01DX009 (oral), vehicle: saline
  T/C: 90 % of control
dose: 64.0 mg/kg/injection, schedule: Q04DX003 (ip), vehicle: saline
  T/C: 100 % of control
dose: 64.0 mg/kg/injection, schedule: Q08DX002 (ip), vehicle: saline
  T/C: 100 % of control
dose: 128.0 mg/kg/injection, schedule: Q01DX001 (oral), vehicle: saline
  T/C: 90 % of control
dose: 128.0 mg/kg/injection, schedule: Q01DX001 (sc), vehicle: saline
  T/C: 100 % of control
dose: 128.0 mg/kg/injection, schedule: Q01DX009 (oral), vehicle: saline
  T/C: 95 % of control
dose: 256.0 mg/kg/injection, schedule: Q01DX001 (oral), vehicle: saline
  T/C: 95 % of control
dose: 256.0 mg/kg/injection, schedule: Q01DX001 (sc), vehicle: saline
  T/C: 90 % of control
dose: 512.0 mg/kg/injection, schedule: Q01DX001 (oral), vehicle: saline
  T/C: 90 % of control
dose: 512.0 mg/kg/injection, schedule: Q01DX001 (sc), vehicle: saline
  T/C: 100 % of control
dose: 1024.0 mg/kg/injection, schedule: Q01DX001 (oral), vehicle: saline
  T/C: 95 % of control
